Assay results reported in US20030087263A1, “Method of screening remedy for cancer with the use of interaction domain of p53 and mortalin” (priority 1999, published 2003).
Where no end group is shown, it is not given here.

Assays:
[1] = test system: binding between p53 and mortalin (amino acid residues 1-435 or 105-435); experiment: competitive inhibition assay of p53-mortalin binding; conditions: increasing amounts of competitor peptide
Source text: (C) The increase of the amounts of the peptide (comp. pep) corresponding to the mortalin amino acid residues 253-282 to be added reduced the […] the mortalin amino acid residues 1-435 (mot 1-435) and the peptide corresponding to mortalin amino acid residues 105-435 (mot 105-435). p53 was immunoprecipitated with the polyclonal anti-p53 antibody (CM-1) and detected by Western blotting with a monoclonal anti-p53 antibody (PAb 421)) (bands represented with an arrowhead). Co-immunoprecipitated mortalin was detected by Western blotting with anti-His tag antibody (indicated by arrows).
Next, a competitive inhibition assay was performed to confirm the involvement of this peptide of amino acid residues 253-282 in the binding to p53.

[2] = test system: COS7 cells; experiment: localization of GFP-fused p53 fragments expressed in COS7 cells; format: cell-based; conditions: COS7 cells transfected with GFP-fused protein
Source text: (B) A photograph showing the green fluorescence of GFP in COS7 cells transfected with (a) GFP alone, (b) GFP-p53 (amino acid residues 312-352), and (c) GFP-p53 (amino acid residues 312-319).
Since the in vitro translated product of a 43 kDa truncated p53, lacking the C terminus, lacks the ability to bind to mortalin protein as described in Example 1, it was presumed that this deleted region contains the region that is related to the binding to mortalin.

[3] = test system: mortalin; experiment: immunoprecipitation of GFP-p53 fragments using anti-mortalin antibody; format: binding; conditions: transfected cells, probed with anti-GFP antibody
Source text: (C) Mortalin was immunoprecipitated from cells transfected with GFP-tagged p53 fragments with polyclonal anti-mortalin antibodies, and was visualized with monoclonal antibodies. Immunocomplexes (Mot-IC) were also probed with monoclonal anti-GFP antibody to determine whether the p53 fusion proteins co-precipitate with mortalin (left panel). […] Bands corresponding to the IgG heavy and light chains are also detected on Mot-IC gel.

[4] = test system: p53-dependent transcriptional activation; experiment: p53 responsive β-gal reporter assay by microinjection into Saos2 cells; format: cell-based, human; conditions: for β-Gal Staining: Percent of Blue cells / β-Gal Staining: Blue cells: Saos2, microinjected with pMSV p53 and p53 β-gal rep.
Source text: (C) The p53 activity detected for the p53 responsive β-galactosidase reporter construct was inhibited when a plasmid encoding mot-2 (b and i) , mut-11 (d and K), or mutant V16M (f and m) was simultaneously microinjected with the p53 expression plasmid. […] Microinjected cells were visualized by staining with FITC-labeled anti-rabbit IgG (a-g).
Similar results were obtained according to an experiment wherein the above mutant mortalin proteins, temperature-sensitive mutant p53 protein, and p53 responsive β-gal reporter gene pRGCΔfos-lacZ were introduced into a human osteosarcoma cell line Saos2 by microinjection.

[5] = test system: p53-dependent transcriptional activation; experiment: p53-dependent luciferase reporter analysis in p53-/- mouse embryonic fibroblasts; format: cell-based; conditions: p53-/- MEF, PG13-luc type reporter, temperature-sensitive p53 at 32.5° C.
Source text: After preparing cDNAs that encode mutant mortalin proteins missing each of the functions shown in FIG. 3A and mortalin proteins point mutated at two different amino acid residues between mot-1 and mot-2 according to the method described in Example 1, the cDNAs were used for p53-dependent reporter analysis. Specifically, cells obtained by stable transfection of plasmid […], wherein the firefly luciferase gene has been linked to p53 responsive promoter (having the promoter sequence “[…]” and expresses the gene downstream of that sequence as a result of binding with p53 protein), and temperature-sensitive mutant p53 protein expression vector pMSVp53Val135 into mouse embryonic fibroblasts deficient in functional p53 gene (P53−/−MEF) (see, Wadhwa, R. et al. (1998) J. Biol. Chem. 273, 29586-29591) were transfected with various mortalin mutant protein expression vectors and pRL-CMV, serving as an internal control for standardizing transcription efficiency. After incubation at 32.5° C., which is an allowable temperature for the mutant p53 protein, the luciferase activity was measured.

[6] = biological target: T1, full-length mouse wild-type p53 (Mus musculus, UniProt P02340); experiment: in vitro binding assay of mortalin protein and p53 protein (co-immunoprecipitation); conditions: His-tagged recombinant mortalin, in vitro translated 35S-labeled p53, co-precipitation
T1 construct: mRNA encoding full-length mouse wild-type p53; made in house; host or cells: in vitro translation in rabbit reticulocyte lysate (Stratagene)
Description: After preparing mRNA encoding full-length mouse wild-type p53 with a template of pSP65/p53 plasmid (Braithwaite, A. W. and Jenkins, J. R. (1989) J. Virol. 63, 1792-1799) using Transprobe T Kit (Pharmacia), [^35S]-labeled p53 protein was obtained by subjecting to in vitro translation reaction using rabbit reticulocyte lysate (Stratagene) for 1 hour in the presence of L-[^35S]methionine. After separating the translation products by SDS-PAGE, the translation reaction products were confirmed by autoradiography. The in vitro translated p53 protein was purified by immunoprecipitation with anti-p53 antibodies (PAb 421, PAb 1620 (Calbiochem), and PAb 122 (Boehringer-Mannheim)), and was used in the subsequent in vitro binding assays described below.
After preparing cDNAs encoding the recombinant mortalin protein (full-length) and various deletion mutants (described later) by PCR and converting them to a form to encode a His-tagged protein by inserting the cDNAs into pQE30 vector (Qiagen) the cDNAs were introduced into E. coli for expression. The resulting bacterial extracts were purified with Ni-NTA agarose (Qiagen). […] Then, p53 protein was detected by autoradiography; mortalin and deletion mutants thereof were detected by Western blotting with anti-His antibody and ECL-chemiluminescence (Amersham).

T1 sequence (P02340 whole entry): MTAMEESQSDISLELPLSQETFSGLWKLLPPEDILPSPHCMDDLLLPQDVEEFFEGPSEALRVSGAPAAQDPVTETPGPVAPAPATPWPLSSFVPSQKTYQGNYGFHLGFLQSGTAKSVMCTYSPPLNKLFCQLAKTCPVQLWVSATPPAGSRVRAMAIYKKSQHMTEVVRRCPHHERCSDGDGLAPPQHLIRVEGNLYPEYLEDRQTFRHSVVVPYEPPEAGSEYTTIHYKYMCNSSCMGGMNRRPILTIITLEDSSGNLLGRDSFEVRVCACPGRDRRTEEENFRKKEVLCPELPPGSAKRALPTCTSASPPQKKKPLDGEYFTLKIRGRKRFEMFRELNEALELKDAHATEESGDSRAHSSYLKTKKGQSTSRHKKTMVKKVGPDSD

## 253-282: peptide corresponding to the mortalin amino acid residues 253-282
[1]
  inhibition of binding between p53 and mortalin: inhibited binding between p53 and mortalin

## GFP-p53 (amino acid residues 312-352): green fluorescent protein fused with p53 amino acid residues 312-352 ({GFP}-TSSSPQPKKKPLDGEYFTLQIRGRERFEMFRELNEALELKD; UniProt P04637 312-352, looked up, fragment)
[2]
  expressed proteins localized to the vicinity of the nucleus: about 90%
[3]
  binding to mortalin (co-precipitation): confirmed to bind to mortalin

## GFP-p53 (amino acid residues 372-390): green fluorescent protein fused with p53 amino acid residues 372-390 ({GFP}-KKGQSTSRHKKLMFKTEGP; UniProt P04637 372-390, looked up, fragment)
[3]
  binding to mortalin (co-precipitation): no precipitation

## mot-1: mortalin protein cloned from normal mouse cells; differs from mot-2 by two amino acids (residues 618 and 624)
[4]
  β-Gal Staining: Percent of Blue cells: 88%
[4]; with Anti-mot IgG
  β-Gal Staining: Blue cells: 83
  β-Gal Staining: Percent of Blue cells: 90%
[4]; number of blue cells among transfected cells
  β-Gal Staining: Blue cells: 52
[4]; Saos2, microinjection
  effect on p53-dependent transcriptional activation (β-gal reporter): did not have a significant effect
[5]
  inhibition of p53-dependent transcriptional activation (luciferase activity): did not have any effect
[6]
  binding with full-length p53 protein: specifically bound
